Columns and labels:
[1] = system: rats; test: Chronic toxicity, first experiment (60 days); assay type: in vivo, Wistar-Ocefa rats; conditions: rat, in vivo
Method: Wistar-Ocefa rats of both sexes weighing 70-90 g were used, divided into groups of 30 animals (15 males and 15 females) to a total of […].
Chlorophenazole and phenylbutazone (reference drug) were administered orally for a period of 60 days in doses of 30-60 mg/kg of chlorophenazole and 8-160 mg/kg of phenylbutazone (first experiment) and for a period of 5 months in doses of 6-12 mg/kg of chlorophenazole and 16 mg/kg of phenylbutazone (second experiment).
The following parameters were determined periodically: behavior, general state, food consumption, body weight, red blood cell number, white blood cell number, leucocite formula, hemoglobin, hematocrit, globular value, total proteins, glycemia, azotemia, cholesterol, total lipids, triglycerides, creatinine, GOT, GPT, urine analysis. At the end of the experiment the animals were sacrificed, their general state was observed, the following organs were weighed: liver, spleen, kidneys, supranenes, ovary and testicles, lungs, heart, stomach.

[2] = in vivo; conditions: rat, po
[3] = Edema by carrageen (rat paw), antiedematous activity; assay type: in vivo, Rats of the Wistar-Roux-Ocefa stock; conditions: for IT (DL50/DE50): DL50/DE50, os; for ED50: Rattus norvegicus, po, os, probits method and graphically, read-out: DE50 (the source's name)
Method: (§1) A 1% physiological solution of carrageen was used. Rats of the Wistar-Roux-Ocefa stock having a weight of 150±30 g were used. The drugs were suspended in 1% carboxymethylcellulose or dissolved in distilled water and administered orally one hour before the inflammatory agent in a volume of 0.5 ml/100 g. The carrageen was adminstered subcutaneously in the subplanetary region of one of the rear paws. The volume of the paw was measured platysmagraphically initially and then after 1.5 hour, 3 hours and 5 hours after administering the carrageen. One inflammation unit was defined as the displacement of 0.01 ml of Hg.
(§2) The edema was evaluated as the difference in volume of the rear paw before and after the carrageen. The DE 50 was calculated by the probits method and graphically. The comparison drugs used were phenylbutazone and niflumic acid.

[4] = Pulminary edema by carrageen (Sancilio method, pleural exudate); assay type: in vivo, Wistar-Roux-Ocefa rats; conditions: for ml of exudate: 30 mg/Kg, pleural cavity
Method: Using the Sancilio method (Sancilio F. L., J. Pharmacol. Exptl. Therap., 168, 199 (1969); Sancilio L. F. Rodrigues R., Proc. Soc. Exptl. Biol. Med., 123, 707 (1969); Sancilio L. F. Lawrence R., Proc. Soc. Exptl. Biol. Med., 127, 597 (1968), pulminary irritation was induced in Wistar-Roux-Ocefa rats and the capacity of chlorophenazole and other drugs to prevent production of pleural exudate was measured. 5 ml of a 0.025% carrageen solution and 0.075% Evans blue were injected into the pleurea.
The action of chlorophenazole, mepyrazole and phenylbutazone were evaluated from the quantity of exudate present in the pleural cavity after 1 and 6 hours.

[5] = Edema by carrageen in normal and adrenoprival (suprarenectomised) rats; assay type: in vivo, rat; set-up: Edema by carrageen: unit not given beside the values; conditions: adrenoprival rats
Method: as §1, §2
To evaluate if the activity of the chlorophenazole on edema by carrageen was influenced by stimulation of the suprarenes, experiments were carried out with suprarenectomised rats. Normal rats were also compared with falsely operated rats to evaluate the influence of the operational trauma.

[6] = Action on sleep by barbiturates; assay type: in vivo, Wistar-Ocefa rats; conditions: pentobarbital sodium 40 mg/kg alone
Method: […] Loss of the redressment reflex was taken to indicate commencement of sleep. The chlorophenazone was administered orally with a dose of 1/10 of the DL50. The induction time and the duration of sleep were measured.

## CCCCC1C(=O)N(c2ccccc2)N(c2ccccc2)C1=O [Phenylbutazone]
[1]
  cholesterol: the same for cholesterol at the larger doses
  stomach appearance: contract and pale
[2]
  LD50: 351 mg/kg
[3]; 10 mg/kg oral, 1.5 hours
  Δ Volume of the inflamed paw: 28 UPI
[3]; 10 mg/kg oral, 3 hours
  Δ Volume of the inflamed paw: 65 UPI
[3]; 10 mg/kg oral, 5 hours
  Δ Volume of the inflamed paw: 88 UPI
[3]; 20 mg/kg oral, 1.5 hours
  Δ Volume of the inflamed paw: 26 UPI
[3]; 20 mg/kg oral, 3 hours
  Δ Volume of the inflamed paw: 59 UPI
[3]; 20 mg/kg oral, 5 hours
  Δ Volume of the inflamed paw: 74 UPI
[3]; 40 mg/kg oral, 1.5 hours
  Δ Volume of the inflamed paw: 24 UPI
[3]; 40 mg/kg oral, 3 hours
  Δ Volume of the inflamed paw: 51 UPI
[3]; 40 mg/kg oral, 5 hours
  Δ Volume of the inflamed paw: 73 UPI
[3]
  IT (DL50/DE50): 23.40
  ED50: 15 mg/kg
[4]
  ml of exudate: 3.12 mL
[4]; exudate after 1 and 6 hours
  activity on pleural exudate: significantly active

## COc1cc(C)nc(-n2nc(C)cc2OC)n1 [Mepyrazole]
[4]
  ml of exudate: 4.38 mL

## O=C(O)c1cccnc1Nc1cccc(C(F)(F)F)c1 [Niflumic acid]
[2]
  LD50: 30 mg/kg
[3]; 10 mg/kg oral, 1.5 hours
  Δ Volume of the inflamed paw: 25 UPI
[3]; 10 mg/kg oral, 3 hours
  Δ Volume of the inflamed paw: 51 UPI
[3]; 10 mg/kg oral, 5 hours
  Δ Volume of the inflamed paw: 80 UPI
[3]; 20 mg/kg oral, 1.5 hours
  Δ Volume of the inflamed paw: 20 UPI
[3]; 20 mg/kg oral, 3 hours
  Δ Volume of the inflamed paw: 35 UPI
[3]; 20 mg/kg oral, 5 hours
  Δ Volume of the inflamed paw: 56 UPI
[3]; 40 mg/kg oral, 1.5 hours
  Δ Volume of the inflamed paw: 18 UPI
[3]; 40 mg/kg oral, 3 hours
  Δ Volume of the inflamed paw: 33 UPI
[3]; 40 mg/kg oral, 5 hours
  Δ Volume of the inflamed paw: 49 UPI
[3]
  IT (DL50/DE50): 11.40
  ED50: 7 mg/kg
[5]; 10 mg/kg, 1.5 hours
  Edema by carrageen: 25
[5]; 10 mg/kg, 3 hours
  Edema by carrageen: 34
[5]; 20 mg/kg, 1.5 hours
  Edema by carrageen: 20
[5]; 20 mg/kg, 3 hours
  Edema by carrageen: 24
[5]; 40 mg/kg, 1.5 hours
  Edema by carrageen: 19
[5]; 40 mg/kg, 3 hours
  Edema by carrageen: 30

## CCCC(C)C1(CC)C(=O)NC(=O)NC1=O (stereo not shown) [Pentobarbital sodium, reference compound]
[6]
  Induction time: 4.4 min
  Sleeping time: 49.1 min

— US4499104A, “Imidazole compound, the process for its preparation, and therapeutically active compositions containing same” (priority 1976, dated 1985)
